# Numbers after ± are expanded uncertainties.
# Settings: Liquid, Closed cell (Static) method
Compound,vapor or sublimation pressure (283.6 K),vapor or sublimation pressure (293.4 K),vapor or sublimation pressure (298.3 K),vapor or sublimation pressure (298.4 K),vapor or sublimation pressure (303.3 K),vapor or sublimation pressure (308.2 K),vapor or sublimation pressure (313.1 K),vapor or sublimation pressure (318.1 K),vapor or sublimation pressure (323 K),vapor or sublimation pressure (332.8 K),vapor or sublimation pressure (303.2 K),vapor or sublimation pressure (308.1 K),vapor or sublimation pressure (327.9 K),vapor or sublimation pressure (337.8 K),further results
"CC(C)CC(C)(C)C [2,2,4-trimethylpentane]",3.05 ± 0.46 kPa,5.18 ± 0.51 kPa,6.63 ± 0.42 kPa,6.62 ± 0.42 kPa,8.39 ± 0.64 kPa,10.53 ± 0.7 kPa,12.97 ± 0.8 kPa,15.96 ± 0.94 kPa,19.54 ± 1.1 kPa,28.66 ± 1.4 kPa,–,–,–,–,vapor or sublimation pressure (288.4 K): 3.99 ± 0.48 kPa; vapor or sublimation pressure (328 K): 23.81 ± 1.3 kPa
CCO [ethanol],–,5.95 ± 0.56 kPa,7.96 ± 0.7 kPa,–,–,–,17.87 ± 1.2 kPa,22.98 ± 1.5 kPa,–,46.15 ± 2.6 kPa,10.52 ± 0.85 kPa,13.84 ± 1 kPa,36.73 ± 2.3 kPa,–,vapor or sublimation pressure (278.6 K): 2.18 ± 0.45 kPa; vapor or sublimation pressure (283.5 K): 3.11 ± 0.5 kPa; vapor or sublimation pressure (322.9 K): 29.05 ± 1.9 kPa
COC(C)(C)C [2-methoxy-2-methylpropane],17.79 ± 1.1 kPa,–,–,33.72 ± 1.8 kPa,41.1 ± 2.1 kPa,49.8 ± 2.4 kPa,59.9 ± 2.8 kPa,71.61 ± 3.3 kPa,85.01 ± 3.8 kPa,–,–,–,100.34 ± 4.4 kPa,137.39 ± 5.4 kPa,vapor or sublimation pressure (288.6 K): 22.07 ± 1.2 kPa; vapor or sublimation pressure (293.5 K): 27.43 ± 1.5 kPa; vapor or sublimation pressure (332.9 K): 117.7 ± 5 kPa
Cc1ccccc1 [toluene],1.7 ± 0.42 kPa,2.97 ± 0.45 kPa,3.89 ± 0.47 kPa,–,–,–,7.99 ± 0.62 kPa,–,12.26 ± 0.77 kPa,18.26 ± 1 kPa,5 ± 0.5 kPa,6.27 ± 0.55 kPa,15 ± 0.9 kPa,22.04 ± 1.1 kPa,vapor or sublimation pressure (278.7 K): 1.26 ± 0.41 kPa; vapor or sublimation pressure (288.5 K): 2.26 ± 0.43 kPa; vapor or sublimation pressure (318 K): 9.95 ± 0.68 kPa

# Source: the NIST ThermoML archive (doi:10.1016/j.fluid.2017.04.014)
